Results reported in ChEMBL document CHEMBL1134915, “Acyl dipeptides as reversible caspase inhibitors. Part 2: further optimization” (Bioorg Med Chem Lett, 2002).

Tests used:
Caspase-7 [1] = target: T1, Caspase-7 (Homo sapiens, UniProt P55210); assay: Inhibition of Caspase-7 enzyme
T1 sequence (P55210 whole entry): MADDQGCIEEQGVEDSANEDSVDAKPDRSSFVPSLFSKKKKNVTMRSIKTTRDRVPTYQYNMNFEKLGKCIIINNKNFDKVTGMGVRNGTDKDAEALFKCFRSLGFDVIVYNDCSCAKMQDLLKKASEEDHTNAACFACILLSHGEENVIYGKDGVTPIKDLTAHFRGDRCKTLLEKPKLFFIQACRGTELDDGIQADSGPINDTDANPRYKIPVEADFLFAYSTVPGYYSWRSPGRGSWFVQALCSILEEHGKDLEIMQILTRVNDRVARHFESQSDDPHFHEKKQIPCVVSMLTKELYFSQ

Caspase-3 [2] = target: T2, Caspase-3 (Homo sapiens, UniProt P42574); assay: Inhibition of Caspase-3
T2 sequence (P42574 whole entry): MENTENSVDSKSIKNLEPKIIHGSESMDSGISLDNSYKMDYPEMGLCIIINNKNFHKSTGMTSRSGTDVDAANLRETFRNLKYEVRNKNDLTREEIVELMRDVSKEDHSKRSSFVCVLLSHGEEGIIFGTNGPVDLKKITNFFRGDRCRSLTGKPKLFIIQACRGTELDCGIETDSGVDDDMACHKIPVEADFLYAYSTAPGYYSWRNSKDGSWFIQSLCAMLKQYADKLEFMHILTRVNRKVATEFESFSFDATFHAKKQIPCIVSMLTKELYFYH

Caspase-1 [3] = target: T3, Caspase-1 (Homo sapiens, UniProt P29466); assay: Inhibition of Caspase-1 enzyme
T3 sequence (P29466 whole entry): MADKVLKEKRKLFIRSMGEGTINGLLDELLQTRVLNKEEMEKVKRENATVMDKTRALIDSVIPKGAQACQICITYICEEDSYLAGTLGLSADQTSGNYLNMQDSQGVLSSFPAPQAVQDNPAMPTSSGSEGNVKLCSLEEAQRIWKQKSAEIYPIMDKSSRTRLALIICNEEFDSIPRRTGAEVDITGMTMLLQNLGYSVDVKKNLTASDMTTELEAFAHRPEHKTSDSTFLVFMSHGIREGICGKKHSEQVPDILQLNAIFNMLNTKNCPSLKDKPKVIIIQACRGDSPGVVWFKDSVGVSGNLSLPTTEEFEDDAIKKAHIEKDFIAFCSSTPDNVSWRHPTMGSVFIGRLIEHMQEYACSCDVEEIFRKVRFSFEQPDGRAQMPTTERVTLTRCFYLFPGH

Caspase-8 [4] = target: T4, Caspase-8 (Homo sapiens, UniProt Q14790); assay: Inhibition of Caspase-8 enzyme
Caspase-6 [5] = target: T5, Caspase-6 (Homo sapiens, UniProt P55212); assay: Inhibition of Caspase-6
T5 sequence (P55212 whole entry): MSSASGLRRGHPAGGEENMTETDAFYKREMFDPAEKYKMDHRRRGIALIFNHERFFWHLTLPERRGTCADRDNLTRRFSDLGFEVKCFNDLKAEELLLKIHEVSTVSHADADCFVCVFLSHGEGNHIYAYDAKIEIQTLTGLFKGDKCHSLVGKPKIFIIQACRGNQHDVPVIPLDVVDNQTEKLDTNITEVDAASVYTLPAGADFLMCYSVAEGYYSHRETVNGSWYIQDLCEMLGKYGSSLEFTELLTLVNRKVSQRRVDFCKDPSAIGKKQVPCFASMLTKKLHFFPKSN

Caspase-7 [6] = target: T1, Caspase-7; assay: Inhibitory concentration of compound required against Caspase-7 enzyme compared to acylated dipeptides
Caspase-3 [7] = target: T2, Caspase-3; assay: Inhibitory concentration of compound required against Caspase-3 enzyme compared to acylated dipeptides
Caspase-6 [8] = target: T5, Caspase-6; assay: Inhibitory concentration of compound required against Caspase-6 enzyme compared to acylated dipeptides
Caspase-1 [9] = target: T3, Caspase-1; assay: Inhibitory concentration of compound required against Caspase-1 enzyme compared to acylated dipeptides
Caspase-8 [10] = target: T4, Caspase-8; assay: Inhibitory concentration of compound required against Caspase-8 enzyme compared to acylated dipeptides

T4 sequence (Q14790 217-374 limits assumed): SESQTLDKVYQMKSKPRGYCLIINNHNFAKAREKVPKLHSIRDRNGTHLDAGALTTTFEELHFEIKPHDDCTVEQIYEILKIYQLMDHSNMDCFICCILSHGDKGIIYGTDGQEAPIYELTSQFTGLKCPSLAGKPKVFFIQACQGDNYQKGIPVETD
T4 sequence (Q14790 385-479 limits assumed): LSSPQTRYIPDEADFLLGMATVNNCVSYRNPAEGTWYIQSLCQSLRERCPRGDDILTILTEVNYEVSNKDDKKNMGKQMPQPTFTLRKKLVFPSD

IC50 (Caspase-7 [1]) [nM] | IC50 (Caspase-3 [2]) [nM] | IC50 (Caspase-1 [3]) [nM] | IC50 (Caspase-8 [4]) [nM] | IC50 (Caspase-6 [5]) [nM] | IC50 (Caspase-7 [6]) [nM] | IC50 (Caspase-3 [7]) [nM] | IC50 (Caspase-6 [8]) [nM] | IC50 (Caspase-1 [9]) [nM] | IC50 (Caspase-8 [10]) [nM] | SMILES
11000 | 207 | 127 | 615 | 1010 |  |  |  |  |  | CC(C)C(NC(=O)COc1cccc2c(NS(=O)(=O)C(F)(F)F)cccc12)C(=O)N[C@H]1CC(=O)OC1O (some centres not stated)
43700 | 1920 | 2180 | 1420 | 3030 |  |  |  |  |  | CC(C)C(NC(=O)COc1cc2ccccc2cc1NS(=O)(=O)C(F)(F)F)C(=O)N[C@H]1CC(=O)OC1O (some centres not stated)
587 | 21 |  | 12 | 15 |  |  |  |  |  | CC(C)CC(NC(=O)[C@@H](CCC(=O)O)Oc1cccc2ccccc12)C(=O)N[C@H]1CC(=O)OC1O (some centres not stated)
1650 | 54 | 385 | 48 | 1430 |  |  |  |  |  | CC(C)C(NC(=O)COc1c(C(=O)O)ccc2ccccc12)C(=O)N[C@H]1CC(=O)OC1O (some centres not stated)
2670 | 230 | 330 | 670 | 308 |  |  |  |  |  | CC(C)CC(NC(=O)CNc1cccc(Oc2ccccc2)c1)C(=O)N[C@H]1CC(=O)OC1O (some centres not stated)
130 | 3.8 |  | 31 | 3.5 |  |  |  |  |  | CC(C)CC(NC(=O)[C@H](CCC(=O)O)Oc1cccc2ccccc12)C(=O)N[C@H]1CC(=O)OC1O (some centres not stated)
2920 | 320 | 790 | 990 | 589 |  |  |  |  |  | CC(C)CC(NC(=O)CNCC(Cc1ccccc1)c1ccccc1)C(=O)N[C@H]1CC(=O)OC1O (some centres not stated)
7240 | 512 |  | 17 | 310 |  |  |  |  |  | CC(C)C[C@H](NC(=O)C(C)Nc1cccc2ccccc12)C(=O)N[C@H]1CC(=O)OC1O (some centres not stated)
37000 | 4400 | 250 | 19600 | 4600 |  |  |  |  |  | CC(C)C(NC(=O)CCOc1cccc2ccccc12)C(=O)N[C@H]1CC(=O)OC1O (some centres not stated)
1320 | 13 | 33 | 7.6 | 37 |  |  |  |  |  | CC(C)CC(NC(=O)CNc1cccc2ccccc12)C(=O)N[C@H]1CC(=O)OC1O (some centres not stated)
6140 | 1550 | 15 | 450 | 7000 |  |  |  |  |  | CC(C)C(NC(=O)CNc1cccc2ccccc12)C(=O)N[C@H]1CC(=O)OC1O (some centres not stated)
2100 | 355 | 336 | 1200 | > 10000 |  |  |  |  |  | CC(C)C(NC(=O)COc1cccc2ccccc12)C(=O)N[C@H]1CC(=O)OC1O (some centres not stated)
10900 | 401 | 2960 | 733 | 3610 |  |  |  |  |  | CC(C)C(NC(=O)COc1ccc2ccccc2c1C(=O)O)C(=O)N[C@H]1CC(=O)OC1O (some centres not stated)
17000 | 731 | 1890 | 200 | 1900 |  |  |  |  |  | CC(C)C(NC(=O)COc1cc2ccccc2cc1C(=O)O)C(=O)N[C@H]1CC(=O)OC1O (some centres not stated)
 |  |  |  |  | 10 | 3.5 | 10 | 50 | 80 | CC(=O)N[C@@H](CC(=O)O)C(=O)N[C@@H](CCC(=O)O)C(=O)N[C@H](C(=O)N[C@H]1CC(=O)OC1O)C(C)C (some centres not stated)
